Results taken from patent US20080090770A1, “Modulation of Muc1 Mediated Signal Transduction” (priority 2003, published 2008).

Experiments:
[1] = system: HCT116 cells transfected with MUC1ΔSANL; experiment: Visualization of viable cells after cisplatin in transfected HCT116 cells; assay type: cell-based, human; details: 100 μM cisplatin, 24 and 48 hr
Description: Human HCT116 colon carcinoma cells (ATCC, Manassas, Va.) were cultured in Dulbecco's modified Eagle's medium/F12 with 10% heat-inactivated fetal bovine serum, 100 units/ml penicillin, […] streptomycin and 2 mM L-glutamine. HCT116 cells were transfected with pIRES-puro2, pIRESpuro2-MUC1 or pIRES-puro2-MUC1ΔSANL (MUC1 with the four carboxyl terminal amino acids […] deleted) as described (Li et al., 2001). Stable transfectants were selected in the presence of 0.4 mg/ml puromycin (Calbiochem-Novabiochem, San Diego, Calif.).
Cells were incubated with 100 μM cisplatin (CDDP; Sigma), for 24 and 48 hr.

[2] = system: HCT116/vector cells; experiment: Apoptosis assay (sub-G1 DNA content) after siRNA transfection and CDDP treatment; assay type: cell-based, human; details: CDDP 100 μM
Description: (§1) Cell culture and transfection: Human colon cancer HCT116 cells and human non-small lung cancer A549 were grown in Dulbecco's modified Eagle's medium (DMEM) and RPMI1640 medium, respectively, in a humidified 5% CO2 atmosphere at 37° C. Media were supplemented with 10% fetal bovine serum (FBS), 100 units/ml of penicillin and 100 μg/ml of streptomycin. HCT116 cells were transfected with pIRES-puro2 or pIRES-puro2-MUC1 as described (Li et al., 2001(a)) and stable transfectants were selected in the presence of 0.4 μg/ml puromycin (Caliochem-Novabiochem).
(§2) A nonspecific scrambled control siRNA (SCRsiRNA) was also synthesized (targeted sequence: 5′-[…]-3′) (Dharmacon, Inc.). Cells were plated, grown in antibiotic-free medium overnight, and then transiently transfected with siRNAs (0.2-20 nM) using Oligofectamine reagent (Invitrogen Life Technology, Inc.) and Opti-MEM 1 reduced serum medium (Invitrogen Life Technology, Inc.) according to the manufacturer's instructions.
(§3) Apoptosis assay: At 48 hr after siRNA transfection, cells were treated with 0, 10 or 100 μM cisplatin (CDDP, Sigma) for 24 hr to induce apoptosis. Apoptotic cells were quantified by analysis of sub-G1 DNA content. Cells were harvested, washed, with PBS, fixed with 75% ethanol, and incubated in PBS containing 200 μg/ml RNase A (Qiagen) for 15 min at 37° C. […] DNA content was analyzed by flow cytometry (EPICS XL-MCL, Coulter Corp.).

[3] = system: HCT116/MUC1 cells; experiment: as above; assay type: cell-based, human; details: CDDP 100 μM
Description: as §1, §2, §3

[4] = system: PDZ domains; experiment: Modified ELISA: profile (matrix) screen of biotinylated peptide against individual GST-PDZ domain fusion proteins; assay type: binding, human
Description: Profile Results Peptides corresponding to the C-terminus were able to bind a number of PDZ domains in a concentration dependent manner. […] Identities of the interacting PDZ domains are listed directly above or next to the bar representing the absorbance in the assay.
The results, shown in FIGS. 11, 12 and 13, represent the absorbance and standard deviation of interactions of higher relative strength. The data in FIG. 13 for PDZK1, PTPL1 d5, MUPP1 d4 and INADL d1 have high standard deviations and thus require further verification to validate intensity of binding.

[5] = target: T1, KIAA0751 (RIM2) PDZ domain 1 (Homo sapiens, UniProt Q9UQ26); experiment: Modified ELISA: titration of biotinylated peptide against GST-PDZ domain fusion protein; assay type: binding
T1 construct: RIM2, PDZ domain 1: GI#: 12734165; made in house; host or cells: E. coli
T1 sequence (Q9UQ26 668-754 limits assumed): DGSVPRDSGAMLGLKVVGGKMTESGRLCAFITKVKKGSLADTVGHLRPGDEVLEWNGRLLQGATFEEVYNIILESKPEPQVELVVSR
Description: Coat plate with 100 μl of 5 μg/ml anti-GST, O/N at 4° C.;
Dump contents of plate & out tap dry on paper towels;
Block with 200 μl Assay Buffer for 2 hrs at room temperature;
Prepare proteins in Assay Buffer;
Add proteins at 50 μl per well, incubate 1 to 2 hrs at 4° C.;
Prepare peptides in Assay Buffer;
Add peptides at 50 μl per well on ice (write time on plate);
Incubate on ice after last peptide has been added for exactly 10 minutes;
Place at room temp for exactly 20 minutes;
Prepare HRP-Streptavidin within 10 minutes of time of use;
Promptly wash 3× with cold PBS;
Add 100 μl per well of HRP-Streptavidin (write time on plate);
Incubate at 4° C. for exactly 20 minutes;
Turn on plate reader and prepare files;
Promptly wash 5× with PBS at room temperature;
Add 100 μl/well TMB substrate (write time on plate);
Incubate in dark at room temp for a maximum of 30 minutes;
Read plate at 25 minutes (650 nm);
Stop reaction with 100 μl of 0.18M H2SO4, 30 min. after adding TMB;
Take last reading at 450 nm soon after stopping reaction;
Titrations to determine relative EC50 values: Peptide corresponding to MUC1 was then titrated against a constant amount of the PDZ domain-containing recombinant proteins identified in the first part of this example.
Using the modified ELISA described supra in Example 6, the effect of two variant carboxy-terminal MUC1 peptides were examined. Two MUC1 isoforms with an A/T substitutions at the fifth amino acid residue from the carboxy-terminal end have been reported in the literature, e.g., carboxy-terminal AAASANL disclosed in GenBank P15941 [gi:547937] and carboxy-terminal AATSANL disclosed in GenBank A35175 [gi:11385307]. Peptides were prepared consisting of the TAT sequence SEQ ID NO: 102 and the terminal nine amino acid residues of the relevant MUC1 sequence, i.e., […]
Using the modified ELISA described supra in Example 7, the binding to the RIM2 PDZ domain of the biotinylated peptide sequences listed in Table 8 were examined. […] Relative EC50 values were calculated from a curve fit of the data for each interaction.

[6] = target: T2, biotinylated TAT-MUC1 binding to ZO1 d2 (Homo sapiens, UniProt Q07157); experiment: Modified ELISA: competition with binding of biotinylated TAT-MUC1 peptide (SEQ ID NO: 134) to PDZ domain
T2 construct: made in house; host or cells: E. coli
T2 sequence (Q07157 186-264 limits assumed): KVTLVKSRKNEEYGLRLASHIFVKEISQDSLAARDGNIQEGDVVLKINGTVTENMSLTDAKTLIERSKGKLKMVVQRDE

[7] = system: PDZ domains; experiment: Self-competition experiments in modified ELISA; assay type: binding, human; details: of the three peptides tested

[NH2][Pt]([NH2])([Cl])[Cl] [CDDP, cisplatin]
Sensitivity to CDDP-induced cell death relative to cells transfected with full length MUC1 [1]: substantially increase in the sensitivity to CDDP-induced cell death
Sensitivity of cells to apoptosis induced by CDDP [2]: sensitive to apoptosis
Sensitivity of cells to apoptosis induced by CDDP [3]: relatively resistant to apoptosis

NGGSSLSYTNPAVAATSANL [MUC1 peptide]
Interactions with higher absorbance readings in PDZ profile ([4]; MUC1 peptide concentration 0.01 μm, FIG. 3): seven interactions are observed to give higher absorbance readings
Interactions with higher absorbance readings in PDZ profile ([4]; MUC1 peptide concentration 0.1 μm, FIG. 4): more interactions are observed

YGRKKRRQRRRQDEEEGIWA [SEQ ID NO: 137]
EC50 for binding to RIM2, compared with SEQ ID NO: 136 [5]: lower EC50
Selectivity of binding, RIM2 versus ZO 1 d2 [5]: binds RIM2 more strongly than ZO 1 d2
Tightness of binding to RIM2 among the three peptides ([5]; comparison of SEQ ID NO: 136, 137, 138): binds most tightly
Competition for binding of biotinylated SEQ ID NO: 134 (TAT-MUC1) [6]: only a relatively weak competitor
Behaviour in self-competition experiments [7]: acts the most like a traditional competitive inhibitor
